We go through four compounds from patent US4764590A, “Des-19-leucine, 20-glutamine, 21-threonine-calcitonin” (Rorer Pharmaceutical Corporation, priority 1987, dated 1988).

Where a SMILES comes first, the peptide text is derived from it.

In test [1] the test system is serum calcium concentration. The experiment in a line: Biological assay of calcitonin analogs in vivo: reduction of serum calcium concentration, 2×2 parallel line assay. The following applies: rats, subcutaneous injection, blood withdrawn 1 hour later, versus synthetic salmon calcitonin standard. The protocol:
Biological Assay of Calcitonin Analogs in Vivo
The biological potency of des-19-leucine, 20-glutamine, 21-threonine-salmoncalcitonin was determined by comparing the reduction of serum calcium concentration which followed administration by graded doses of des-Leu^19, Gln^20, Thr^21 -SCT and synthetic salmon calcitonin standard. Rats were divided into four groups of seven animals, and each group was assigned at random to a dose of standard or test solution. Low and high doses were chosen from the linear portion of the dose-response curve. For the salmon calcitonin standard, the values were 0.7 and 2.1 ng. peptide/100 g. body weight (BW). This dose approximates 3 and 9 MU/100 g. BW. Peptides were given by subcutaneous injection (0.2 ml/100 g. BW) and blood was withdrawn 1 hour later for serum calcium determination. Sera are processed and analyzed within two hours of collection. […]. Results were analyzed by a 2×2 parallel line assay [Gaddum, J. H., J. Pharm. Pharmacol., 6, 345 (1953)]. The standard salmon calcitonin used was independently determined to contain greater than 4,000 IU/mg. des-Leu^19, Gln^20, Thr^21 -SCT assayed at 7100 IU/mg.

The conditions of test [2]: Monikawa et al., Experientia 32(9), 1104-1106 (1976); cited from earlier work.
Test [3] deals with serum calcium concentration. The following applies: standard used in the rat assay; cited from earlier work.

For the compound `CC(C)C[C@H](NC(=O)[C@H](CCCCN)NC(=O)CNC(=O)[C@H](CC(C)C)NC(=O)[C@@H](NC(=O)[C@@H]1CSSC[C@H](N)C(=O)N[C@@H](CO)C(=O)N[C@@H](CC(N)=O)C(=O)N[C@@H](CC(C)C)C(=O)N[C@@H](CO)C(=O)N[C@@H]([C@@H](C)O)C(=O)N1)C(C)C)C(=O)N[C@@H](CO)C(=O)N[C@@H](CCC(N)=O)C(=O)N[C@@H](CCC(=O)O)C(=O)N[C@@H](CC(C)C)C(=O)N[C@@H](Cc1c[nH]cn1)C(=O)N[C@@H](CCCCN)C(=O)N[C@@H](Cc1ccc(O)cc1)C(=O)N1CCC[C@H]1C(=O)N[C@@H](CCCNC(=N)N)C(=O)N[C@H](C(=O)N[C@@H](CC(N)=O)C(=O)N[C@H](C(=O)NCC(=O)N[C@@H](CO)C(=O)NCC(=O)N[C@H](C(=O)N1CCC[C@H]1C(N)=O)[C@@H](C)O)[C@@H](C)O)[C@@H](C)O` [des-Leu^19, Gln^20, Thr^21 -SCT, des-19-leucine, 20-glutamine, 21-threonine-salmon calcitonin] (HELM PEPTIDE1{C.S.N.L.S.T.C.V.L.G.K.L.S.Q.E.L.H.K.Y.P.R.T.N.T.G.S.G.T.P.[am]}$PEPTIDE1,PEPTIDE1,1:R3-7:R3$$$V2.0), the “biological potency (reduction of serum calcium concentration)” value in test [1] is 7100 IU/mg.
As to “(1,7-alpha-L-amino-suberic acid) eel calcitonin”, the hypocalcemic potency result in test [2] is reported as “about 3400 IU/mg”.
Take “Salmon calcitonin [standard salmon calcitonin]”: in test [3], the “potency of the standard salmon calcitonin, independently determined” value was “greater than 4,000 IU/mg”.
Consider “eel calcitonin [synthetic eel calcitonin]”, for which, in test [2], the hypocalcemic potency entry was “around 4300 IU/mg”.
